Source: patent US20240209028A1, “CNP COMPOUNDS” (priority 2022, published 2024)
Starred links: 1 amine or outer side, 2 acyl side, 3 side chain; linkers in the order of their positions; H or OH if unused. Positions of bridges follow the written chain, without caps; N, C: chain ends. Residues, ends and D or L forms follow the SMILES beside them. *: point of attachment. C18 diacid = O=C(O)CCCCCCCCCCCCCCCCC(=O)*; γGlu = O=C(O)[C@H](CCC(=O)[*:2])N[*:1]; AEEA = NCCOCCOCC(=O)O

target: T1, human natriuretic peptide receptor 2 (hNPR2) (Homo sapiens, UniProt P20594); experiment: In vitro hNPR2 activity assay (cGMP GloSensor reporter, HEK293); format: cell-based; details: potency relative to CNP22 (0065)
T1 construct: expressed in transfected cells; host or cells: HEK293 (ATCC CRL-1573), clone 35, co-transfected with pGloSensor-42F
T1 sequence (P20594 23-1047): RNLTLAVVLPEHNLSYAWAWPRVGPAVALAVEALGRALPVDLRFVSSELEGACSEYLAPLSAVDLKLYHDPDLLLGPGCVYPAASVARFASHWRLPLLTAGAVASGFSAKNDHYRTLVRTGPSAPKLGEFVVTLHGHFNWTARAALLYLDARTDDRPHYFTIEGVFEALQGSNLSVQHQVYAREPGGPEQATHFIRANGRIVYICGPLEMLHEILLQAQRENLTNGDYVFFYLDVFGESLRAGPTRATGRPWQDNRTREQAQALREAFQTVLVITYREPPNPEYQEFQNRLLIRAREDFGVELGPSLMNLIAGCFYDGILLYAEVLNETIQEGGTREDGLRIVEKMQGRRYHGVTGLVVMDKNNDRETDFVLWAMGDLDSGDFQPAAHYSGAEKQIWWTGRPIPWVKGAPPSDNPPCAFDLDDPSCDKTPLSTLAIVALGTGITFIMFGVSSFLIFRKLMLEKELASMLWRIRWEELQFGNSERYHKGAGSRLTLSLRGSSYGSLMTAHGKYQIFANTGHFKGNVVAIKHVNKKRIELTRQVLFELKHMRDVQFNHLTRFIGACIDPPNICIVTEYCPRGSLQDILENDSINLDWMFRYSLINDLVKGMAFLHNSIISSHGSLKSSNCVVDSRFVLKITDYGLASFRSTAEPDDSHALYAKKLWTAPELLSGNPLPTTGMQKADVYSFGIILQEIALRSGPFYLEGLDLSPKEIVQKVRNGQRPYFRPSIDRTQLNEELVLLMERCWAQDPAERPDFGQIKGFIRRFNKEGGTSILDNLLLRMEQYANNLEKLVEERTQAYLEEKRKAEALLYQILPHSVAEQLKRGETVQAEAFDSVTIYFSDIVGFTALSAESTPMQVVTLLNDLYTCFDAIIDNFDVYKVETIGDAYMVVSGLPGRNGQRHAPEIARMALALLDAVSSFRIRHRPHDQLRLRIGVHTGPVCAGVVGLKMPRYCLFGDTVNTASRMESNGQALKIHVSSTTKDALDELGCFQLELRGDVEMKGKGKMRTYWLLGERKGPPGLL
Outline: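 Potency is the EC50 from a four-parameter logistic fit, also expressed relative to the in-plate CNP22 control (×100), with at least two replicates. Compounds (ten concentrations, […], HSA-free diluent with 1% OVA, 0.01% Tween20) were incubated 30 min at 37 °C on HEK293 cells co-expressing hNPR2 and a GloSensor cGMP luciferase. Luminescence detected with Bright-Glo.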

Going from `CC[C@H](C)[C@@H]1NC(=O)[C@H](CCCNC(=N)N)NC(=O)[C@H](CC(=O)O)NC(=O)[C@H](CC(C)C)NC(=O)[C@@H]2CCCN2C(=O)[C@H](CC(C)C)NC(=O)CNC(=O)[C@H](Cc2ccccc2)NC(=O)[C@@H](NC(=O)CNC(=O)[C@H](CCC(N)=O)NC(=O)[C@H](CO)NC(=O)[C@H](CC(C)C)NC(=O)CNC(=O)[C@H](CCCCN)NC(=O)[C@H](CCCCN)NC(=O)[C@H](CCC(=O)O)NC(=O)[C@H](C)NC(=O)CNC(=O)[C@H](CCC(=O)O)NC(=O)[C@H](Cc2ccc(O)cc2)NC(=O)COCCOCCNC(=O)COCCOCCNC(=O)CC[C@H](NC(=O)CCCCCCCCCCCCCCCCC(=O)O)C(=O)O)CSSC[C@@H](C(=O)O)NC(=O)CNC(=O)[C@H](CC(C)C)NC(=O)CNC(=O)[C@H](CO)NC(=O)[C@H](CC(C)C)NC(=O)[C@H](CO)NC(=O)CNC1=O` [compound 1274] ({C18 diacid-γGlu-AEEA-AEEA}-YEGAEKKGLSQGCFGLPLDRIGSLSGLGC-OH; disulfide 13-29) to `CC[C@H](C)[C@@H]1NC(=O)[C@H](CCCNC(=N)N)NC(=O)[C@H](CC(=O)O)NC(=O)[C@H](CC(C)C)NC(=O)[C@@H]2CCCN2C(=O)[C@H](CC(C)C)NC(=O)CNC(=O)[C@H](Cc2ccccc2)NC(=O)[C@@H](NC(=O)CNC(=O)[C@H](CO)NC(=O)[C@H](CO)NC(=O)[C@H](CC(C)C)NC(=O)CNC(=O)[C@H](CCC(=O)O)NC(=O)[C@H](CCCCN)NC(=O)[C@H](CCC(N)=O)NC(=O)[C@H](C)NC(=O)CNC(=O)[C@H](CCC(=O)O)NC(=O)[C@H](Cc2ccc(O)cc2)NC(=O)COCCOCCNC(=O)COCCOCCNC(=O)CC[C@H](NC(=O)CCCCCCCCCCCCCCCCC(=O)O)C(=O)O)CSSC[C@@H](C(=O)O)NC(=O)CNC(=O)[C@H](CC(C)C)NC(=O)CNC(=O)[C@H](CO)NC(=O)[C@H](CC(C)C)NC(=O)[C@H](CO)NC(=O)CNC1=O` [compound 1289] ({C18 diacid-γGlu-AEEA-AEEA}-YEGAQKEGLSSGCFGLPLDRIGSLSGLGC-OH; disulfide 13-29), the “hNPR2 0% HSA. [EC50% rel CNP]” value falls from 13.2% to 2.9%.

First: CC[C@H](C)[C@@H]1NC(=O)[C@H](CCCNC(=N)N)NC(=O)[C@H](CC(=O)O)NC(=O)[C@H](CC(C)C)NC(=O)[C@@H]2CCCN2C(=O)[C@H](CC(C)C)NC(=O)CNC(=O)[C@H](Cc2ccccc2)NC(=O)[C@@H](NC(=O)CNC(=O)[C@H](CO)NC(=O)[C@H](CO)NC(=O)[C@H](CC(C)C)NC(=O)CNC(=O)[C@H](CCCCN)NC(=O)[C@H](CCC(=O)O)NC(=O)[C@H](CCC(N)=O)NC(=O)[C@H](C)NC(=O)CNC(=O)[C@H](CCC(=O)O)NC(=O)COCCOCCNC(=O)COCCOCCNC(=O)CC[C@H](NC(=O)CCCCCCCCCCCCCCCCC(=O)O)C(=O)O)CSSC[C@@H](C(=O)O)NC(=O)CNC(=O)[C@H](CC(C)C)NC(=O)CNC(=O)[C@H](CO)NC(=O)[C@H](CC(C)C)NC(=O)[C@H](CO)NC(=O)CNC1=O [compound 1287] ({C18 diacid-γGlu-AEEA-AEEA}-EGAQEKGLSSGCFGLPLDRIGSLSGLGC-OH; disulfide 12-28)
Second: CC[C@H](C)[C@@H]1NC(=O)[C@H](CCCNC(=N)N)NC(=O)[C@H](CC(=O)O)NC(=O)[C@H](CC(C)C)NC(=O)[C@@H]2CCCN2C(=O)[C@H](CC(C)C)NC(=O)CNC(=O)[C@H](Cc2ccccc2)NC(=O)[C@@H](NC(=O)CNC(=O)[C@H](CO)NC(=O)[C@H](CO)NC(=O)[C@H](CC(C)C)NC(=O)CNC(=O)[C@H](CCC(=O)O)NC(=O)[C@H](CCCCN)NC(=O)[C@H](CCC(N)=O)NC(=O)[C@H](C)NC(=O)CNC(=O)[C@H](CCC(=O)O)NC(=O)COCCOCCNC(=O)COCCOCCNC(=O)CC[C@H](NC(=O)CCCCCCCCCCCCCCCCC(=O)O)C(=O)O)CSSC[C@@H](C(=O)O)NC(=O)CNC(=O)[C@H](CC(C)C)NC(=O)CNC(=O)[C@H](CO)NC(=O)[C@H](CC(C)C)NC(=O)[C@H](CO)NC(=O)CNC1=O [compound 1288] ({C18 diacid-γGlu-AEEA-AEEA}-EGAQKEGLSSGCFGLPLDRIGSLSGLGC-OH; disulfide 12-28)
The “hNPR2 0% HSA. [EC50% rel CNP]” value of the first is lower: 2.9% for the first, 3.0% for the second.

Compared with `CC[C@H](C)[C@@H]1NC(=O)[C@H](CCCNC(=N)N)NC(=O)[C@H](CC(=O)O)NC(=O)[C@H](CC(C)C)NC(=O)[C@@H]2CCCN2C(=O)[C@H](CC(C)C)NC(=O)CNC(=O)[C@H](Cc2ccccc2)NC(=O)[C@@H](NC(=O)CNC(=O)[C@H](CO)NC(=O)[C@H](CO)NC(=O)[C@H](CC(C)C)NC(=O)CNC(=O)[C@H](CCCCN)NC(=O)[C@H](CCCCN)NC(=O)[C@H](CCC(N)=O)NC(=O)[C@H](C)NC(=O)CNC(=O)[C@H](CCC(=O)O)NC(=O)[C@H](Cc2ccc(O)cc2)NC(=O)COCCOCCNC(=O)COCCOCCNC(=O)CC[C@H](NC(=O)CC[C@H](NC(=O)CCCCCCCCCCCCCCCCC(=O)O)C(=O)O)C(=O)O)CSSC[C@@H](C(=O)O)NC(=O)CNC(=O)[C@H](CC(C)C)NC(=O)CNC(=O)[C@H](CO)NC(=O)[C@H](CC(C)C)NC(=O)[C@H](CO)NC(=O)CNC1=O` [compound 1290] ({C18 diacid-γGlu-γGlu-AEEA-AEEA}-YEGAQKKGLSSGCFGLPLDRIGSLSGLGC-OH; disulfide 13-29), `CC[C@H](C)[C@@H]1NC(=O)[C@H](CCCNC(=N)N)NC(=O)[C@H](CC(=O)O)NC(=O)[C@H](CC(C)C)NC(=O)[C@@H]2CCCN2C(=O)[C@H](CC(C)C)NC(=O)CNC(=O)[C@H](Cc2ccccc2)NC(=O)[C@@H](NC(=O)CNC(=O)[C@H](CCCCN)NC(=O)[C@H](CO)NC(=O)[C@H](CC(C)C)NC(=O)CNC(=O)[C@H](CCCCN)NC(=O)[C@H](CCCCN)NC(=O)[C@H](CCC(N)=O)NC(=O)[C@H](C)NC(=O)CNC(=O)[C@H](Cc2c[nH]cn2)NC(=O)[C@H](CCC(=O)O)NC(=O)COCCOCCNC(=O)COCCOCCNC(=O)CC[C@H](NC(=O)CCCCCCCCCCCCCCCCC(=O)O)C(=O)O)CSSC[C@@H](C(=O)O)NC(=O)CNC(=O)[C@H](CC(C)C)NC(=O)CNC(=O)[C@H](CO)NC(=O)[C@H](CC(C)C)NC(=O)[C@H](CO)NC(=O)CNC1=O` [compound 1309] ({C18 diacid-γGlu-AEEA-AEEA}-EHGAQKKGLSKGCFGLPLDRIGSLSGLGC-OH; disulfide 13-29) is higher in “hNPR2 0% HSA. [EC50% rel CNP]” value: 7.0% for the first, 33.3% for the second.

Going from `CC[C@H](C)[C@@H]1NC(=O)[C@H](CCCNC(=N)N)NC(=O)[C@H](CC(=O)O)NC(=O)[C@H](CC(C)C)NC(=O)[C@@H]2CCCN2C(=O)[C@H](CC(C)C)NC(=O)CNC(=O)[C@H](Cc2ccccc2)NC(=O)[C@@H](NC(=O)CNC(=O)[C@H](CO)NC(=O)[C@H](CO)NC(=O)[C@H](CC(C)C)NC(=O)CNC(=O)[C@@H](NC(=O)[C@H](CCCCN)NC(=O)[C@H](CCC(N)=O)NC(=O)[C@H](C)NC(=O)CNC(=O)[C@H](Cc2c[nH]cn2)NC(=O)[C@H](Cc2ccc(O)cc2)NC(=O)COCCOCCNC(=O)COCCOCCNC(=O)CC[C@H](NC(=O)CCCCCCCCCCCCCCCCC(=O)O)C(=O)O)[C@@H](C)O)CSSC[C@@H](C(=O)O)NC(=O)CNC(=O)[C@H](CC(C)C)NC(=O)CNC(=O)[C@H](CO)NC(=O)[C@H](CC(C)C)NC(=O)[C@H](CO)NC(=O)CNC1=O` [compound 1302] ({C18 diacid-γGlu-AEEA-AEEA}-YHGAQKTGLSSGCFGLPLDRIGSLSGLGC-OH; disulfide 13-29) to `CC[C@H](C)[C@@H]1NC(=O)[C@H](CCCNC(=N)N)NC(=O)[C@H](CC(=O)O)NC(=O)[C@H](CC(C)C)NC(=O)[C@@H]2CCCN2C(=O)[C@H](CC(C)C)NC(=O)CNC(=O)[C@H](Cc2ccccc2)NC(=O)[C@@H](NC(=O)CNC(=O)[C@H](CO)NC(=O)[C@H](CO)NC(=O)[C@H](CC(C)C)NC(=O)CNC(=O)[C@@H](NC(=O)[C@H](Cc2c[nH]cn2)NC(=O)[C@H](CCC(N)=O)NC(=O)[C@H](C)NC(=O)CNC(=O)[C@H](CCCCN)NC(=O)[C@H](Cc2ccc(O)cc2)NC(=O)COCCOCCNC(=O)COCCOCCNC(=O)CC[C@H](NC(=O)CCCCCCCCCCCCCCCCC(=O)O)C(=O)O)[C@@H](C)O)CSSC[C@@H](C(=O)O)NC(=O)CNC(=O)[C@H](CC(C)C)NC(=O)CNC(=O)[C@H](CO)NC(=O)[C@H](CC(C)C)NC(=O)[C@H](CO)NC(=O)CNC1=O` [compound 1305] ({C18 diacid-γGlu-AEEA-AEEA}-YKGAQHTGLSSGCFGLPLDRIGSLSGLGC-OH; disulfide 13-29), the “hNPR2 0% HSA. [EC50% rel CNP]” value falls from 26.5% to 8.7%.
